US20250325552A1, “SUBSTITUTED THIADIAZOLYL DERIVATIVES AS DNA POLYMERASE THETA INHIBITORS” (IDEAYA Biosciences, Inc., priority 2020, published 2025)

Molecular target: Polθ theta (1-899) (hPolQ) (Homo sapiens (Human), UniProt O75417)
Assay: Biological Assay 1: Polθ ATPase activity, NADH oxidation-coupled enzymatic assay (10 nM enzyme, 30 min)
Assay type: biochemical
Details: Polθ (1-899) 10 nM, 100 μM ATP, 300 nM dT50 ssDNA; Examples 1 to 268; read-out: ATPase NADH coupling:Standard Screening:hPolQ IC50
Experimental: The ability of the compounds of Formula (I), (II), (III), (IV), or Table 1 (Examples 1 to Example 268) to inhibit ATPase activity of Polθ theta (1-899) was determined using the assay described below.
Polθ Theta ATPase activity was determined by measuring the rate of ATP turn over in a NADH oxidation-coupled enzymatic assay. 10-point dilution series of compounds were used in a 384 well format for the inhibition assays. Polθ theta (1-899) (10 nM) in assay buffer (20 mM Tris HCl (pH 7.80), 80 mM KCl, 10 mM MgCl2, 1 mM DTT, 0.01% BSA, 0.01% Tween, 5% glycerol) was transferred to the test wells (20 μL), except the low control wells (20 μL of assay buffer was added to the low control wells). The plate was then incubated at room temperature for 15 min. An equal volume (20 μL) of 100 μM ATP, 300 nM dT50 (single-stranded DNA (ssDNA) containing 50 thymine bases), 300 μM NADH, 6 mM PEP, 10 U/mL lactate dehydrogenase and U/mL pyruvate kinase in assay buffer was added to all the test wells. The plate was then centrifuged at 1000 rpm for 1 min. The reaction was monitored for 30 min by measuring absorbance (λ=340 nm) in a Tecan Spark multimode plate reader every minute. The high control (DMSO with enzyme) with low absorbance intensity represents no inhibition of ATPase reaction while the low control (DMSO with buffer) with high absorbance intensity represents full inhibition of ATPase activity. Slope of the reaction progress curves were used to calculate the rate of ATP hydrolysis. The rates were used to determine the percent inhibition using a four-parameter inhibition model to generate IC50, Hill slope and max inhibition.

Sequence of Polθ theta (1-899) (hPolQ) (O75417 1-899): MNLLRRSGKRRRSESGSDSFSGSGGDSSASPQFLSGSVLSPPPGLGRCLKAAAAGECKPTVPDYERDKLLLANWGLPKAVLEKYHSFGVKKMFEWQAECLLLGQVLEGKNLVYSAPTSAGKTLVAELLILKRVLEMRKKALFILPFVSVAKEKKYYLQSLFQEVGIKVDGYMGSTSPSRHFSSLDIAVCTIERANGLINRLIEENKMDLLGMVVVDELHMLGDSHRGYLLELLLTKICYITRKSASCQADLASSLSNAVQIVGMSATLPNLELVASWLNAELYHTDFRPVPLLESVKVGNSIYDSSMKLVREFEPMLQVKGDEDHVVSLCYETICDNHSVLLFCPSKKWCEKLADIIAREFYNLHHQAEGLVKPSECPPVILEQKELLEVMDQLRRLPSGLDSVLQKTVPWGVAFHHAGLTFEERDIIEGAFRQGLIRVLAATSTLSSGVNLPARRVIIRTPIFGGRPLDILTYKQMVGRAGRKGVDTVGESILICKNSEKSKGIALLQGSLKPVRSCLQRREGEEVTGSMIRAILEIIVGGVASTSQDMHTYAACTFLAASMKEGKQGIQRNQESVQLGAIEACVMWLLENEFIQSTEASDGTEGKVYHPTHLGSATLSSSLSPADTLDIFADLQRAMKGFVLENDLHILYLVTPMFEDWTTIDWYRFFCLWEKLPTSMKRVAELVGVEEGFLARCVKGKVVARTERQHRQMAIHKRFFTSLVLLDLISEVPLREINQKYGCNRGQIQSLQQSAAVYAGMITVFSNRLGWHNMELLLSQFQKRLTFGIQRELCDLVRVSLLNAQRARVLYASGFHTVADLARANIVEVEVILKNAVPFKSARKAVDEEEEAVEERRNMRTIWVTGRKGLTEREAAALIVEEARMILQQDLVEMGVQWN

## COc1cnc(Cl)cc1-c1cc(C)ncc1C(=O)Nc1nnc(OC[C@H]2COC[C@@H]2C)s1 (single isomer, unassigned) [Example 268]
  IC50: ≤ 0.2 µM

## COc1cccc(F)c1-c1cc(C)ncc1C(=O)Nc1nnc(OCc2ccc([C@@H](C)OC)cn2)s1 [Example 94, 4-(2-fluoro-6-methoxyphenyl)-N-(5-((5-((R)-1-methoxyethyl)pyridin-2-yl)methoxy)-1,3,4-thiadiazol-2-yl)-6-methylnicotinamide]
  IC50: ≤ 0.2 µM

## Cc1cc(-c2cc(C)ncc2C(=O)Nc2nnc(OCc3ccc(C(C)(C)O)cn3)s2)ccn1 [Example 89, N-(5-((5-(2-hydroxypropan-2-yl)pyridin-2-yl)methoxy)-1,3,4-thiadiazol-2-yl)-2′,6-dimethyl-(4,4′-bipyridine)-3-carboxamide]
  IC50: 0.2 to 0.5 µM

## COc1ccc(Cl)cc1-c1cc(C)ncc1C(=O)Nc1nnc(OCc2ccc(C(C)(C)O)cn2)s1 [Example 96, 4-(5-chloro-2-methoxyphenyl)-N-(5-((5-(2-hydroxypropan-2-yl)pyridin-2-yl)methoxy)-1,3,4-thiadiazol-2-yl)-6-methylnicotinamide]
  IC50: ≤ 0.2 µM

## COc1cnc(C)cc1-c1cc(C)ncc1C(=O)Nc1nnc(OCc2cnc(CO)cn2)s1 [Example 146, N-(5-((5-(hydroxymethyl)pyrazin-2-yl)methoxy)-1,3,4-thiadiazol-2-yl)-5′-methoxy-2′,6-dimethyl-[4,4′-bipyridine]-3-carboxamide]
  IC50: ≤ 0.2 µM

## COc1cnc(Cl)cc1-c1cc(COC2CC2)ncc1C(=O)Nc1nnc(OC[C@H]2CC[C@H](O)CC2)s1 [Example 232, 2′-chloro-6-(cyclopropoxymethyl)-N-(5-(((1r,4r)-4-hydroxycyclohexyl)methoxy)-1,3,4-thiadiazol-2-yl)-5′-methoxy-(4,4′-bipyridine)-3-carboxamide]
  IC50: ≤ 0.2 µM

## COc1ccc(Cl)cc1-c1cnncc1C(=O)Nc1nnc(OCC23CCC(O)(CC2)CC3)s1 [Example 121, 5-(5-chloro-2-methoxyphenyl)-N-(5-((4-hydroxybicyclo(2.2.2)octan-1-yl)methoxy)-1,3,4-thiadiazol-2-yl)pyridazine-4-carboxamide]
  IC50: 0.2 to 0.5 µM

## COc1cccc(F)c1-c1cc(C)ncc1C(=O)Nc1nnc(OCC23CC(C#N)(C2)C3)s1 [Example 95, N-(5-((3-cyanobicyclo(1.1.1)pentan-1-yl)methoxy)-1,3,4-thiadiazol-2-yl)-4-(2-fluoro-6-methoxyphenyl)-6-methylpyridine-3-carboxamide]
  IC50: ≤ 0.2 µM

## COc1ccccc1-c1cnccc1C(=O)Nc1nnc(OCCC2(C#N)CC2)s1 [Example 192, N-(5-(2-(1-cyanocyclopropyl)ethoxy)-1,3,4-thiadiazol-2-yl)-3-(2-methoxyphenyl)pyridine-4-carboxamide]
  IC50: 1 to 10 µM

## COc1ccc(C#N)cc1-c1cc(C)ncc1C(=O)Nc1nnc(OCc2ccc(CO)cn2)s1 [Example 32, 4-(5-cyano-2-methoxyphenyl)-N-(5-((5-(hydroxymethyl)pyridin-2-yl)methoxy)-1,3,4-thiadiazol-2-yl)-6-methylpyridine-3-carboxamide]
  IC50: ≤ 0.2 µM

## COc1cnc(Cl)cc1-c1cc(C)ncc1C(=O)Nc1nnc(OC[C@@H]2CO[C@H](CO)CO2)s1 (racemic) [Example 237, rel-2′-chloro-N-(5-(((2s,5r)-5-(hydroxymethyl)-1,4-dioxan-2-yl)methoxy)-1,3,4-thiadiazol-2-yl)-5′-methoxy-6-methyl-(4,4′-bipyridine)-3-carboxamide]
  IC50: ≤ 0.2 µM

## COc1cnc(Cl)cc1-c1cc(C)ncc1C(=O)Nc1nnc(OC[C@H]2CCOC2(C)C)s1 (single isomer, unassigned) [Example 190]
  IC50: ≤ 0.2 µM

## COc1cccc(F)c1-c1cc(C)ncc1C(=O)Nc1nnc(OCC2CCS(=O)(=O)CC2)s1 [Example 158, N-(5-((1,1-dioxidotetrahydro-2H-thiopyran-4-yl)methoxy)-1,3,4-thiadiazol-2-yl)-4-(2-fluoro-6-methoxyphenyl)-6-methylnicotinamide]
  IC50: ≤ 0.2 µM

## Cc1cc(-c2c(F)cccc2OC(F)F)c(C(=O)Nc2nnc(OCc3cnc(CO)cn3)s2)cn1 [Example 70, 4-(2-(difluoromethoxy)-6-fluorophenyl)-N-(5-((5-(hydroxymethyl)pyrazin-2-yl)methoxy)-1,3,4-thiadiazol-2-yl)-6-methylnicotinamide]
  IC50: ≤ 0.2 µM

## COc1cnc(Cl)cc1-c1cc(C)ncc1C(=O)Nc1nnc(OCC2COC3(CCC3)C2)s1 (centres unmarked) [Example 224, N-(5-((5-oxaspiro(3.4)octan-7-yl)methoxy)-1,3,4-thiadiazol-2-yl)-2′-chloro-5′-methoxy-6-methyl-(4,4′-bipyridine)-3-carboxamide]
  IC50: ≤ 0.2 µM

## COc1cnc(Cl)cc1-c1cc(C)ncc1C(=O)Nc1nnc(OCc2ccc(Cl)cn2)s1 [Example 8, 2′-chloro-N-(5-((5-chloropyridin-2-yl)methoxy)-1,3,4-thiadiazol-2-yl)-5′-methoxy-6-methyl-[4,4′-bipyridine]-3-carboxamide]
  IC50: ≤ 0.2 µM

## COc1cnc(C)cc1-c1cc(C)ncc1C(=O)Nc1nnc(OCc2ccc(C(C)(C)O)cn2)s1 [Example 76, N-(5-((5-(2-hydroxypropan-2-yl)pyridin-2-yl)methoxy)-1,3,4-thiadiazol-2-yl)-5′-methoxy-2′,6-dimethyl-(4,4′-bipyridine)-3-carboxamide]
  IC50: ≤ 0.2 µM

## COc1cccc(F)c1-c1cc(C)ncc1C(=O)Nc1nnc(OCc2ccc(S(C)(=O)=O)cn2)s1 [Example 24, 4-(2-fluoro-6-methoxyphenyl)-6-methyl-N-(5-((5-(methylsulfonyl)pyridin-2-yl)methoxy)-1,3,4-thiadiazol-2-yl)nicotinamide]
  IC50: ≤ 0.2 µM

## COc1ccc(Cl)cc1-c1cc(C)ncc1C(=O)Nc1nnc(OCc2cnc(CO)cn2)s1 [Example 133, 4-(5-chloro-2-methoxyphenyl)-N-(5-((5-(hydroxymethyl)pyrazin-2-yl)methoxy)-1,3,4-thiadiazol-2-yl)-6-methylpyridine-3-carboxamide]
  IC50: ≤ 0.2 µM

## COc1cnc(Cl)cc1-c1cc(C)ncc1C(=O)Nc1nnc(OCc2ccc(C(C)(C)C#N)cn2)s1 [Example 84, 2′-chloro-N-(5-((5-(2-cyanopropan-2-yl)pyridin-2-yl)methoxy)-1,3,4-thiadiazol-2-yl)-5′-methoxy-6-methyl-(4,4′-bipyridine)-3-carboxamide]
  IC50: ≤ 0.2 µM

## COc1ccccc1-c1cc(C)ncc1C(=O)Nc1nnc(O[C@H](C)c2ccc(Cl)cn2)s1 [Example 12, (R)—N-(5-(1-(5-chloropyridin-2-yl)ethoxy)-1,3,4-thiadiazol-2-yl)-4-(2-methoxyphenyl)-6-methylnicotinamide]
  IC50: 1 to 10 µM

## COc1cnc(Cl)cc1-c1cc(C)ncc1C(=O)Nc1nnc(OCC23CCC(O)(CC2)CC3)s1 [Example 136, 2′-chloro-N-(5-((4-hydroxybicyclo(2.2.2)octan-1-yl)methoxy)-1,3,4-thiadiazol-2-yl)-5′-methoxy-6-methyl-(4,4′-bipyridine)-3-carboxamide]
  IC50: ≤ 0.2 µM

## COc1cccc(F)c1-c1cnncc1C(=O)Nc1nnc(OCc2ccc(Cl)cn2)s1 [Example 64, N-(5-((5-chloropyridin-2-yl)methoxy)-1,3,4-thiadiazol-2-yl)-5-(2-fluoro-6-methoxyphenyl)pyridazine-4-carboxamide]
  IC50: ≤ 0.2 µM

## COc1cnc(Cl)cc1-c1cc(C)ncc1C(=O)Nc1nnc(OC[C@H]2COC[C@H]2C)s1 (single isomer, unassigned) [Example 267]
  IC50: ≤ 0.2 µM

## COc1cnc(Cl)cc1-c1cc(C)ncc1C(=O)Nc1nnc(OCC2COC(C)(C)C2)s1 (stereo in doubt) [Example 189, (S)-2′-chloro-N-(5-((5,5-dimethyltetrahydrofuran-3-yl)methoxy)-1,3,4-thiadiazol-2-yl)-5′-methoxy-6-methyl-(4,4′-bipyridine)-3-carboxamide]
  IC50: ≤ 0.2 µM

## COc1cccc(F)c1-c1cc(C)ncc1C(=O)Nc1nnc(OCc2ccc(C3(O)CC3)cn2)s1 [Example 48, 4-(2-fluoro-6-methoxyphenyl)-N-(5-((5-(1-hydroxycyclopropyl)pyridin-2-yl)methoxy)-1,3,4-thiadiazol-2-yl)-6-methylnicotinamide]
  IC50: ≤ 0.2 µM

## COc1cnc(Cl)c(F)c1-c1cc(C)ncc1C(=O)Nc1nnc(OC[C@@H]2COCCO2)s1 [Example 239, N-(5-(((S)-1,4-dioxan-2-yl)methoxy)-1,3,4-thiadiazol-2-yl)-2′-chloro-3′-fluoro-5′-methoxy-6-methyl-(4,4′-bipyridine)-3-carboxamide]
  IC50: ≤ 0.2 µM

## Cc1cc(-c2cc(Cl)ncc2OC(F)F)c(C(=O)Nc2nnc(OC[C@@H]3CCOC3)s2)cn1 (single isomer, unassigned) [Example 258]
  IC50: ≤ 0.2 µM

## COc1cccc(F)c1-c1cc(C)ncc1C(=O)Nc1nnc(OCC23CC(C(C)(C)O)(C2)C3)s1 [Example 103, 4-(2-fluoro-6-methoxyphenyl)-N-(5-((3-(2-hydroxypropan-2-yl)bicyclo(1.1.1)pentan-1-yl)methoxy)-1,3,4-thiadiazol-2-yl)-6-methylpyridine-3-carboxamide]
  IC50: ≤ 0.2 µM
